Measurements as given in patent publication US20230114728A1 (Venatorx Pharmaceuticals, Inc., priority 2019, published 2023).
pEC50: −log10 of the molar value. In brackets after ≈: the same amount, converted by molar mass.

Experiments:
P. aeruginosa PBP3 = biological target: T1, P. aeruginosa PBP3 (Pseudomonas aeruginosa, UniProt G3XD46); assay: Bocillin-FL fluorescence polarization competition binding assay, P. aeruginosa PBP3; conditions: fluorescence polarization competition binding assay using Bocillin-FL
T1 construct: made in house
Method in brief: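 Binding of boronic acid inhibitors to purified Pseudomonas aeruginosa (PA01) PBP3 was measured by fluorescence polarization competition with Bocillin-FL, a fluorescent penicillin V. Reactions of 80 μl contained 0.75 μM PBP3 and 0.1 μM Bocillin-FL in 50 mM Hepes (pH 8.0), 300 mM NaCl and 5% (v/v) glycerol, in black 384-well plates. FP (Excitation 490 nm, Emission 520 nm) was read for up to 60 minutes. EC50 is the concentration that halves PBP-bound Bocillin-FL.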

[1] = system: P. aeruginosa (ΔmexAB-oprM); assay: Broth microdilution MIC in CAMHB; assay type: cell-based; conditions: Pseudomonas aeruginosa, read-out: Minimum Inhibitory Concentration, P. aeruginosa ΔmexAB-OprM
Description: (§1) Example III: In Vitro Antibacterial Assays
(§2) To determine the ability of test compounds to inhibit the growth of bacterial strains, classic cell based broth microdilution minimum inhibitory concentration (MIC) assays were employed. MIC assays are performed according to CLSI methods except where otherwise noted (CLSI, 2018 and CLSI, 2019). The reference type strain E. coli ATCC 25922; the wild-type parent strain E. coli AG100; the hyper-permeable E. coli 901C and E. coli D22; and the E. coli AG100A strain lacking the acrAB efflux pump encoding genes were used to determine the ability of the PBP inhibitors to penetrate the outer membrane of gram-negative bacteria and inhibit bacterial growth. […] The P. aeruginosa ATCC 27853 and A. baumannii ATCC 19606, along with the hyper-permeable P. aeruginosa ATCC 35151 and an engineered efflux pump-compromised strain of P. aeruginosa (ΔmexAB-oprM) were used to determine the ability of PBP inhibitors to penetrate the outer membrane of P. aeruginosa and A. baumannii and assess antibacterial activity against these important gram-negative organisms.
(§3) Briefly, cryo-preserved bacterial cultures of challenge strains are streaked for isolation on appropriate agar medium, in this case cation-adjusted Mueller Hinton agar. Following incubation to allow growth of the colonies, plates are sealed with parafilm and stored refrigerated for up to two weeks. For preparation of assay inoculum and to ensure low variability, at least 5 colonies are picked from the agar plates with an inoculating loop and aseptically transferred to a culture tube containing 3 mL of cation-adjusted Mueller Hinton broth (CAMHB). The broth culture is grown for 3-5 hours at 37° C. with shaking at 200 rpm. Meanwhile, 2-fold serial dilutions of test compounds are conducted in a 96-well plate with a final volume of 75 μL per well at 2-fold the final desired concentration. After the dilution plates are set up the growing cultures are then diluted in a cuvette containing CAMHB and the optical density is measured at 600 nm. The inoculum is diluted such that 75 μL of this culture in CAMHB results in a starting bacterial concentration of 2-8×10^5 CFU/mL when added to the dilution plates. The plates are incubated for 16-20 hours for Enterobacteriaceae and Pseudomonas and 20-24 hours for Acinetobacter at 37° C. The MIC values are read visually as the lowest concentration well with no bacterial growth.

E. coli D22 = assay: Broth microdilution MIC in CAMHB; assay type: cell-based; conditions: Escherichia coli; MHB; hyper-permeable E. coli D22; read-out: Minimum Inhibitory Concentration, E. coli D22
Description: as §1, §2, §3

[2] = system: K. pneumoniae SI-117 producing VIM-1; assay: Broth microdilution MIC in CAMHB; assay type: cell-based; conditions: Klebsiella pneumoniae, read-out: Minimum Inhibitory Concentration, K. pneumoniae SI-117
Description: as §1, §2, §3

[3] = system: K. pneumoniae 848844 producing SHV-11 and KPC-2; assay: Broth microdilution MIC in CAMHB; assay type: cell-based; conditions: Klebsiella pneumoniae, read-out: Minimum Inhibitory Concentration, K. pneumoniae 848844
Description: as §1, §2, §3

[4] = system: K. pneumoniae UMM producing SHV-5 and KPC-2; assay: Broth microdilution MIC in CAMHB; assay type: cell-based; conditions: Klebsiella pneumoniae, read-out: Minimum Inhibitory Concentration, K. pneumoniae UMM
Description: as §1, §2, §3

E. coli AG100 = assay: Broth microdilution MIC in CAMHB; assay type: cell-based; conditions: Escherichia coli; MHB; wild-type parent strain E. coli AG100; read-out: Minimum Inhibitory Concentration, E. coli AG100
Description: as §1, §2, §3

E. coli ATCC 25922 = assay: Broth microdilution MIC in CAMHB; assay type: cell-based; conditions: Escherichia coli, ATCC25922; MHB; E. coli ATCC 25922; read-out: Minimum Inhibitory Concentration, E. coli 25922
Description: as §1, §2, §3

E. coli AG100A = assay: Broth microdilution MIC in CAMHB; assay type: cell-based; conditions: Escherichia coli, read-out: Minimum Inhibitory Concentration, E. coli AG100A
Description: as §1, §2, §3

P. aeruginosa ATCC 35151 = assay: Broth microdilution MIC in CAMHB; assay type: cell-based; conditions: Pseudomonas aeruginosa, ATCC35151; MHB; hyper-permeable strain; read-out: Minimum Inhibitory Concentration, P. aeruginosa ATCC 35151
Description: as §1, §2, §3

E. coli 901C = assay: Broth microdilution MIC in CAMHB; assay type: cell-based; conditions: Escherichia coli; MHB; hyper-permeable E. coli 901C; read-out: Minimum Inhibitory Concentration, E. coli 901C
Description: as §1, §2, §3

A. baumannii ATCC 19606 = assay: Broth microdilution MIC in CAMHB; assay type: cell-based; conditions: Acinetobacter baumannii, ATCC19606; MHB; read-out: Minimum Inhibitory Concentration, A. baumannii ATCC 19606
Description: as §1, §2, §3

P. aeruginosa ATCC 27853 = assay: Broth microdilution MIC in CAMHB; assay type: cell-based; conditions: Pseudomonas aeruginosa, ATCC27853; MHB; read-out: Minimum Inhibitory Concentration, P. aeruginosa ATCC 27853
Description: as §1, §2, §3

E. coli K12 PBP3 = biological target: T2, E. coli K12 PBP3 (Escherichia coli, UniProt P0AD68); assay: biochemical; assay type: binding
T2 construct: made in house
Description: Example I: Experimental Method for Penicillin-Binding Protein Binding Assays with Bocillin-FL Via Fluorescence Polarization
To determine the ability of boronic acid-based test PBP inhibitors to bind Penicillin Binding Proteins (PBPs), Bocillin-FL (fluorescently-labeled penicillin V; ThermoFisher Scientific) was used in a fluorescence polarization (FP) competition binding assay to assess inhibitor binding to PBP2, PBP3 or PBP4 from Escherichia coli (K12), PBP3 from Pseudomonas aeruginosa (PA01), PBP1a, PBP2 and PBP3 from Acinetobacter baumannii (ATCC 19606), and PBP2 from Neiserria gonorrheae (FA19). PBPs were cloned and purified as described previously (E. coli PBPs, King, D. T, et al., ACS Infectious Diseases 2015, 1, 175-184; P. aeruginosa PBP3, Han et. al., PNAS 2010, 107 (51), 22002-22007; A. baumannii PBPs, Penwell et. al., Antimicrob. Agents Chemother. 2015, 59 (3), 1680-1689; N. gonorrhoeae PBP2, Singh et. al., J Biol. Chem. 2019, 294 (38), 14020-14032). To establish assay conditions for competition binding, enzyme titration/saturation binding experiments were initially performed. Bocillin-FL was prepared at 0.2 μM in a buffer comprised of 50 mM Hepes (pH 8.0), 300 mM NaCl and 5% (v/v) glycerol for reactions with E. coli, P. aeruginosa and N. gonorrhoeae PBPs, and 25 mM Tris (pH 8.0), 200 mM NaCl and 10% (v/v) glycerol and 0.005% (v/v) Tween 20 for reactions with A. baumannii PBPs. Saturation binding was performed by mixing 40 μl of PBP solutions ranging in concentrations from 0-24 μM with 40 μl of the 0.2 μM Bocillin-FL solution, in individual wells of a black 384-well microplate. FP was measured immediately upon mixing (Excitation, 490 nm; Emission, 520 nm; g-factor, 0.96), using a Cytation3 (BioTek) microplate reader and measured continuously for up to 120 minutes. […] The competition binding assay (80 μl final volume) was validated using beta-lactams and PBPs at final concentrations of: 1.5 μM, E. coli PBP3; 0.75 μM, P. aeruginosa PBP3; 1 μM A. baumannii PBP1a; 2.5 μM A. baumannii PBP2; 0.2 μM A. baumannii PBP3; and […] N. gonorrhoeae PBP2. Bocillin-FL was at 0.1 μM (0.05 μM with A. baumannii PBP1a) and beta-lactam concentrations ranged from 0-1000 μM. […] Bocillin-FL was added and the FP immediately measured for up to 60 minutes (90 minutes for E. coli PBP2). […] The beta-lactam potency was reported as the concentration of beta-lactam required to reduce the amount of PBP bound-Bocillin-FL by 50% (EC50). […] Binding assays for boronic acid PBP inhibitors were performed in an identical fashion for the respective PBPs

T1 sequence (G3XD46 whole entry): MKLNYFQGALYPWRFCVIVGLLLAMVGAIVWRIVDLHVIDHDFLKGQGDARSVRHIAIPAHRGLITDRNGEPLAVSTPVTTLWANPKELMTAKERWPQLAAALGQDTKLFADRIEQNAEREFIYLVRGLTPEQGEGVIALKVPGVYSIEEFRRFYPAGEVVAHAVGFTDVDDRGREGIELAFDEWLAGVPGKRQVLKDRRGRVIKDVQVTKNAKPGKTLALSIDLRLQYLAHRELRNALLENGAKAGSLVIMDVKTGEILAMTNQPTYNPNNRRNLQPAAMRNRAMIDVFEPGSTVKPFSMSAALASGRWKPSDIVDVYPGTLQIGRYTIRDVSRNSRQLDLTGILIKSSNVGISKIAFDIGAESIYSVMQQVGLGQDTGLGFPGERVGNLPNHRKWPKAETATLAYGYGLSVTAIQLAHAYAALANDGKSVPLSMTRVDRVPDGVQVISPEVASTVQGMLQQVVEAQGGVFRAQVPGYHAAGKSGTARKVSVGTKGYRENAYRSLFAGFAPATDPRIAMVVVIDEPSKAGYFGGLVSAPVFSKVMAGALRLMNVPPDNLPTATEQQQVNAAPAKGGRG
T2 sequence (P0AD68 1-577): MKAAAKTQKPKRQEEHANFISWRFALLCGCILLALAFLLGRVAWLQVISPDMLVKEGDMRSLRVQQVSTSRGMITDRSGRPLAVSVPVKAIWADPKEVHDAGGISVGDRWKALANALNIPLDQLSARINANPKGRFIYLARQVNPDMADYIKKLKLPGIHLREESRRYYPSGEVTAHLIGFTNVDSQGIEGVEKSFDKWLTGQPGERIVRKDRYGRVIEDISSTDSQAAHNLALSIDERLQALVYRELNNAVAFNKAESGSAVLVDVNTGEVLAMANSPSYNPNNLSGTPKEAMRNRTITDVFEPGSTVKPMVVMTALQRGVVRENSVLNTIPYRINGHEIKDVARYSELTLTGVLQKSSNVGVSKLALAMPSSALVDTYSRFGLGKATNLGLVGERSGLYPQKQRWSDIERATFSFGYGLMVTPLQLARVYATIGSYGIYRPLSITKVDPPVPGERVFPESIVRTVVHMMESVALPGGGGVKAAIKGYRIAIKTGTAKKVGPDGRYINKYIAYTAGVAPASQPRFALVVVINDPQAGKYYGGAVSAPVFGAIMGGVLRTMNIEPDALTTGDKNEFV

SMILES	P. aeruginosa PBP3 Potency (P. aeruginosa PBP3)	MIC [1] [µg/mL]	MIC (E. coli D22) [µg/mL]	MIC [2] [µg/mL]	MIC [3] [µg/mL]	MIC [4] [µg/mL]	MIC (E. coli AG100) [µg/mL]	MIC (E. coli ATCC 25922) [µg/mL]	MIC (E. coli AG100A) [µg/mL]	MIC (P. aeruginosa ATCC 35151) [µg/mL]	MIC (E. coli 901C) [µg/mL]	MIC (A. baumannii ATCC 19606) [µg/mL]	MIC (P. aeruginosa ATCC 27853) [µg/mL]	pEC50 (E. coli K12 PBP3)
CCN1C[C@H](C)N(C(=O)NC(C(=O)N[C@H]2Cc3cccc(C(=O)O)c3OB2O)c2c(F)cc(O)cc2F)C(=O)C1=O (stereo partly drawn) [Example 232, (3R)-3-(2-(2,6-difluoro-4-hydroxyphenyl)-2-((S)-4-ethyl-6-methyl-2,3-dioxopiperazine-1-carboxamido)acetamido)-2-hydroxy-3,4-dihydro-2H-benzo[e][1,2]oxaborinine-8-carboxylic acid]	D (D represents a potency <10 μM)	8 to 16 (≈ 13.9 to 27.9 µM)	32 to 64 (≈ 55.7 to 111 µM)	2 to 4 (≈ 3.48 to 6.96 µM)	8 to 16 (≈ 13.9 to 27.9 µM)	< 0.25	32 to 64 (≈ 55.7 to 111 µM)	8 to 16 (≈ 13.9 to 27.9 µM)	32 to 64 (≈ 55.7 to 111 µM)	2 to 4 (≈ 3.48 to 6.96 µM)	32 to 64 (≈ 55.7 to 111 µM)	> 128	> 128	> 4.52
C[C@H]1CN(CCF)C(=O)C(=O)N1C(=O)NC(C(=O)N[C@H]1Cc2cccc(C(=O)O)c2OB1O)c1c(F)cc(O)cc1F (stereo partly drawn) [Example 233, (3R)-3-(2-(2,6-difluoro-4-hydroxyphenyl)-2-((S)-4-(2-fluoroethyl)-6-methyl-2,3-dioxopiperazine-1-carboxamido)acetamido)-2-hydroxy-3,4-dihydro-2H-benzo[e][1,2]oxaborinine-8-carboxylic acid]	D (D represents a potency <10 μM)	> 128	32 to 64 (≈ 54 to 108 µM)	2 to 4 (≈ 3.38 to 6.75 µM)	8 to 16 (≈ 13.5 to 27 µM)	< 0.25	32 to 64 (≈ 54 to 108 µM)	8 to 16 (≈ 13.5 to 27 µM)	32 to 64 (≈ 54 to 108 µM)	8 to 16 (≈ 13.5 to 27 µM)	32 to 64 (≈ 54 to 108 µM)	> 128	> 128	> 4.52
C[C@H]1CN(CCN)C(=O)C(=O)N1C(=O)NC(C(=O)N[C@H]1Cc2cccc(C(=O)O)c2OB1O)c1c(F)cc(O)cc1F (stereo partly drawn) [Example 234, (3R)-3-(2-((S)-4-(2-aminoethyl)-6-methyl-2,3-dioxopiperazine-1-carboxamido)-2-(2,6-difluoro-4-hydroxyphenyl)acetamido)-2-hydroxy-3,4-dihydro-2H-benzo[e][1,2]oxaborinine-8-carboxylic acid]	D (D represents a potency <10 μM)	8 to 16 (≈ 13.6 to 27.2 µM)	8 to 16 (≈ 13.6 to 27.2 µM)	2 to 4 (≈ 3.39 to 6.79 µM)	8 to 16 (≈ 13.6 to 27.2 µM)	0.5 to 1 (≈ 0.848 to 1.7 µM)	32 to 64 (≈ 54.3 to 109 µM)	8 to 16 (≈ 13.6 to 27.2 µM)	32 to 64 (≈ 54.3 to 109 µM)	2 to 4 (≈ 3.39 to 6.79 µM)	32 to 64 (≈ 54.3 to 109 µM)	> 128	> 128	> 4.52
